Laboratory results as given in the NIST ThermoML archive (doi:10.1021/acs.jced.7b00106).
± gives the expanded uncertainty stated by the source.

Conditions: Gas, Hot wire method

FC(F)(F)/C=C/Cl [(E)-1-chloro-3,3,3-trifluoroprop-1-ene]
thermal conductivity (331.5 K, 333 kPa): 0.01298 ± 0.0005 W/m/K
thermal conductivity (331.53 K, 115 kPa): 0.01325 ± 0.00047 W/m/K
thermal conductivity (331.54 K, 333 kPa): 0.01297 ± 0.00051 W/m/K
thermal conductivity (331.58 K, 329 kPa): 0.01333 ± 0.00052 W/m/K
thermal conductivity (331.68 K, 333 kPa): 0.01367 ± 0.00049 W/m/K
thermal conductivity (331.75 K, 257 kPa): 0.01341 ± 0.00047 W/m/K
thermal conductivity (331.8 K, 182 kPa): 0.01323 ± 0.00047 W/m/K
thermal conductivity (331.82 K, 332 kPa): 0.01319 ± 0.00047 W/m/K
thermal conductivity (331.83 K, 113 kPa): 0.01306 ± 0.00046 W/m/K
thermal conductivity (331.85 K, 115 kPa): 0.01325 ± 0.00047 W/m/K
thermal conductivity (331.86 K, 333 kPa): 0.01297 ± 0.00046 W/m/K
thermal conductivity (331.89 K, 328 kPa): 0.01301 ± 0.00046 W/m/K
thermal conductivity (331.9 K, 328 kPa): 0.01382 ± 0.00049 W/m/K
thermal conductivity (331.94 K, 333 kPa): 0.01367 ± 0.00049 W/m/K
thermal conductivity (331.97 K, 263 kPa): 0.01309 ± 0.00046 W/m/K
thermal conductivity (332 K, 256 kPa): 0.01333 ± 0.00047 W/m/K
thermal conductivity (332.04 K, 97 kPa): 0.01346 ± 0.00048 W/m/K
thermal conductivity (332.06 K, 181 kPa): 0.01314 ± 0.00047 W/m/K
thermal conductivity (332.08 K, 113 kPa): 0.01302 ± 0.00046 W/m/K
thermal conductivity (332.08 K, 186 kPa): 0.01344 ± 0.00048 W/m/K
thermal conductivity (332.12 K, 331 kPa): 0.01303 ± 0.00047 W/m/K
thermal conductivity (332.14 K, 328 kPa): 0.01379 ± 0.00049 W/m/K
thermal conductivity (332.18 K, 114 kPa): 0.01353 ± 0.00048 W/m/K
thermal conductivity (332.2 K, 328 kPa): 0.01299 ± 0.00046 W/m/K
thermal conductivity (332.25 K, 255 kPa): 0.01328 ± 0.00047 W/m/K
thermal conductivity (332.28 K, 333 kPa): 0.013 ± 0.00046 W/m/K
thermal conductivity (332.3 K, 262 kPa): 0.01306 ± 0.00046 W/m/K
thermal conductivity (332.33 K, 180 kPa): 0.01309 ± 0.00046 W/m/K
thermal conductivity (332.36 K, 113 kPa): 0.01297 ± 0.00046 W/m/K
thermal conductivity (332.37 K, 97 kPa): 0.01361 ± 0.00048 W/m/K
thermal conductivity (332.4 K, 328 kPa): 0.01373 ± 0.00049 W/m/K
thermal conductivity (332.42 K, 185 kPa): 0.01339 ± 0.00047 W/m/K
thermal conductivity (332.52 K, 253 kPa): 0.01329 ± 0.00047 W/m/K
thermal conductivity (332.54 K, 113 kPa): 0.01346 ± 0.00048 W/m/K
thermal conductivity (332.56 K, 97 kPa): 0.01298 ± 0.00046 W/m/K
thermal conductivity (332.56 K, 328 kPa): 0.01325 ± 0.00047 W/m/K
thermal conductivity (332.63 K, 178 kPa): 0.01301 ± 0.00046 W/m/K
thermal conductivity (332.63 K, 333 kPa): 0.01323 ± 0.00047 W/m/K
thermal conductivity (332.64 K, 112 kPa): 0.01294 ± 0.00046 W/m/K
thermal conductivity (332.66 K, 260 kPa): 0.01314 ± 0.00047 W/m/K
thermal conductivity (332.67 K, 328 kPa): 0.01373 ± 0.00049 W/m/K
thermal conductivity (332.71 K, 98 kPa): 0.01354 ± 0.00048 W/m/K
thermal conductivity (332.81 K, 183 kPa): 0.0135 ± 0.00048 W/m/K
thermal conductivity (332.81 K, 252 kPa): 0.01326 ± 0.00047 W/m/K
thermal conductivity (332.84 K, 97 kPa): 0.01292 ± 0.00046 W/m/K
thermal conductivity (332.93 K, 177 kPa): 0.01297 ± 0.00046 W/m/K
thermal conductivity (332.95 K, 113 kPa): 0.01357 ± 0.00048 W/m/K
thermal conductivity (332.95 K, 328 kPa): 0.0132 ± 0.00047 W/m/K
thermal conductivity (332.96 K, 113 kPa): 0.01287 ± 0.00046 W/m/K
thermal conductivity (333.06 K, 258 kPa): 0.01325 ± 0.00047 W/m/K
thermal conductivity (333.08 K, 97 kPa): 0.01356 ± 0.00048 W/m/K
thermal conductivity (333.08 K, 333 kPa): 0.01308 ± 0.00046 W/m/K
thermal conductivity (333.14 K, 97 kPa): 0.01284 ± 0.00046 W/m/K
thermal conductivity (333.22 K, 183 kPa): 0.01328 ± 0.00047 W/m/K
thermal conductivity (333.25 K, 176 kPa): 0.01293 ± 0.00046 W/m/K
thermal conductivity (333.35 K, 328 kPa): 0.0133 ± 0.00048 W/m/K
thermal conductivity (333.38 K, 113 kPa): 0.01357 ± 0.00048 W/m/K
thermal conductivity (333.44 K, 97 kPa): 0.01284 ± 0.00046 W/m/K
thermal conductivity (333.49 K, 257 kPa): 0.01337 ± 0.00047 W/m/K
thermal conductivity (333.5 K, 97 kPa): 0.01356 ± 0.00048 W/m/K
thermal conductivity (333.54 K, 333 kPa): 0.01313 ± 0.00047 W/m/K
thermal conductivity (333.58 K, 176 kPa): 0.01292 ± 0.00046 W/m/K
thermal conductivity (333.66 K, 182 kPa): 0.01345 ± 0.00048 W/m/K
thermal conductivity (333.78 K, 328 kPa): 0.01326 ± 0.00047 W/m/K
thermal conductivity (333.82 K, 113 kPa): 0.0136 ± 0.00048 W/m/K
thermal conductivity (333.93 K, 255 kPa): 0.01332 ± 0.00047 W/m/K
thermal conductivity (333.94 K, 97 kPa): 0.01368 ± 0.00048 W/m/K
thermal conductivity (334.01 K, 333 kPa): 0.01329 ± 0.00047 W/m/K
thermal conductivity (334.14 K, 180 kPa): 0.01351 ± 0.00048 W/m/K
thermal conductivity (334.25 K, 328 kPa): 0.01327 ± 0.00047 W/m/K
thermal conductivity (334.31 K, 112 kPa): 0.01357 ± 0.00048 W/m/K
thermal conductivity (334.41 K, 97 kPa): 0.01363 ± 0.00048 W/m/K
thermal conductivity (334.42 K, 254 kPa): 0.0134 ± 0.00047 W/m/K
